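1) Cells in 96-well plates. 2) Compound, 48 h, 5 concentrations. 3) Linear interpolation between surrounding doses. 4) Unreached endpoint = highest concentration. The concentration for 50% growth inhibition is given as GI50. TGI marks complete inhibition of growth.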

Drawing on PubChem BioAssay (NCI), this text covers TGI and GI50 for 15 compounds.

Some test systems named below: UO-31 renal; SK-MEL-5 melanoma; SK-OV-3 ovarian; KM12 colon; U251 CNS; IGROV1 ovarian; HS 578T breast; HOP-92 NSCLC; SK-MEL-28 melanoma; DU-145 prostate.
What all share (test): NCI tumour cell line growth inhibition, 48 h

With `CCCN1C(=O)/C(=C\c2ccc(OC)c(OC)c2)SC1=Nc1ccccc1`, the TGI with UO-31 renal, in the test on SK-MEL-5 melanoma, with SK-OV-3 ovarian, in the test with KM12 colon, in the test on U251 CNS and with IGROV1 ovarian was > 100 µM each time. Further, the TGI in the test on HS 578T breast, with HOP-92 NSCLC and in the test with SK-MEL-28 melanoma was > 100 µM in each case.

As for `O=C(OC/C=C1C=C(OC(=O)c2ccccc2)/C(=N/N(C(=O)c2ccccc2)c2ccccc2)O\1)c1ccccc1`, the TGI was 0.517 µM in the test with UO-31 renal; 35.5 µM in the test on SK-MEL-5 melanoma; 23.6 µM with SK-OV-3 ovarian; 22.8 µM in the test with KM12 colon; 19.3 µM with U251 CNS; 13.3 µM in the test on IGROV1 ovarian. For the same compound, the GI50 in the test with SK-MEL-5 melanoma was 19 µM.

`CCCN(CCC)c1c([N+](=O)[O-])cc(C(=O)N(CCO)CCO)cc1[N+](=O)[O-]`: the TGI in the test on UO-31 renal, in the test on SK-MEL-5 melanoma, in the test on SK-OV-3 ovarian, in the test with KM12 colon, in the test on U251 CNS and with IGROV1 ovarian was > 100 µM each time. Moreover, the TGI in the test with SK-MEL-28 melanoma is > 100 µM.

In the case of `CCOC(=O)C1([Se]c2ccccc2)CCCC1=O` (centres undefined), the TGI with UO-31 renal was 51.6 µM; in the test with SK-MEL-5 melanoma, 58 µM; in the test on SK-OV-3 ovarian, > 100 µM; in the test with KM12 colon it was > 100 µM; with U251 CNS, 23.3 µM; in the test on IGROV1 ovarian it was 78.4 µM. The values for the TGI in the test with HOP-92 NSCLC and in the test with SK-MEL-28 melanoma were 54.5 µM and 41.9 µM, respectively.

With `CCn1c(=O)c2nc(SC)sc2n(-c2ccccc2)c1=O`, the TGI in the test with UO-31 renal was 56.4 µM; in the test with SK-MEL-5 melanoma it was > 100 µM; with SK-OV-3 ovarian, > 100 µM; with KM12 colon, > 100 µM; in the test with U251 CNS it was > 100 µM; in the test on IGROV1 ovarian, > 100 µM. The TGI in the test with HOP-92 NSCLC, in the test with SK-MEL-28 melanoma and in the test with DU-145 prostate was > 100 µM throughout.

For `CC/C=C/C[C@H](O)[C@H]1C[C@H]2O[C@H](CC(=O)OC)C[C@H]2O1`, the TGI in the test on UO-31 renal, in the test on SK-MEL-5 melanoma, with SK-OV-3 ovarian, in the test on KM12 colon, in the test with U251 CNS and in the test on IGROV1 ovarian was > 100 µM in each case. Moreover, the TGI in the test on HS 578T breast, in the test on SK-MEL-28 melanoma and with DU-145 prostate was > 100 µM throughout.

Regarding `COc1ccc2c(c1)c(=O)c1c(NCCN(C)C)ccc3nnn2c31`, the TGI with UO-31 renal was 13.3 µM; in the test on SK-MEL-5 melanoma, 14.1 µM; with SK-OV-3 ovarian it was 23.9 µM; with KM12 colon, 6.03 µM; in the test with U251 CNS, 16.5 µM; with IGROV1 ovarian, 17.4 µM. Besides, the values for the TGI in the test with HOP-92 NSCLC and in the test with SK-MEL-28 melanoma were 10.8 µM and 18.8 µM, respectively.

Turning to `CCn1c2ccccc2c2ccc(C3C(C(=O)OC)=C(C)NC(C)=C3C(=O)OC)cc21`, the TGI with UO-31 renal, in the test on SK-MEL-5 melanoma, in the test with SK-OV-3 ovarian, in the test on KM12 colon, with U251 CNS and with IGROV1 ovarian was > 100 µM throughout. For the same compound, the TGI in the test with SK-MEL-28 melanoma and in the test with DU-145 prostate was > 100 µM in each case.

With `O=C(Nc1cccc2ccccc12)c1ccccc1`, the TGI in the test on UO-31 renal, in the test on SK-MEL-5 melanoma, in the test with SK-OV-3 ovarian, in the test on KM12 colon, in the test on U251 CNS and with IGROV1 ovarian was > 100 µM throughout. Further, the TGI in the test with HS 578T breast, in the test on SK-MEL-28 melanoma and in the test with DU-145 prostate was > 100 µM throughout.

For `CC(=O)N(O)Cc1ccccc1`, the TGI in the test on UO-31 renal, in the test on SK-MEL-5 melanoma, in the test on SK-OV-3 ovarian, with KM12 colon, in the test on U251 CNS and in the test on IGROV1 ovarian was > 100 µM each time. In addition, the TGI in the test with HOP-92 NSCLC and with SK-MEL-28 melanoma was > 100 µM throughout.

As to `COc1ccc(-n2c(=O)n(-c3ccccc3)c(=O)n2-c2ccc(OC)cc2)cc1`, the TGI in the test on UO-31 renal, with SK-MEL-5 melanoma, in the test on SK-OV-3 ovarian, in the test with KM12 colon, with U251 CNS and in the test with IGROV1 ovarian was > 100 µM throughout. Moreover, the TGI in the test with HOP-92 NSCLC, in the test on SK-MEL-28 melanoma and with DU-145 prostate was > 100 µM throughout.

On to `NC1Cc2ccccc2OC1=O` (centres undefined), for which the TGI in the test with UO-31 renal, in the test with SK-MEL-5 melanoma, with SK-OV-3 ovarian, with KM12 colon, in the test with U251 CNS and in the test on IGROV1 ovarian was > 100 µM throughout. In addition, the TGI in the test on HS 578T breast, in the test with SK-MEL-28 melanoma and with DU-145 prostate was > 100 µM throughout.

In the case of `C#CC1(O)CCC2[C@@H]3CCc4cc(Oc5nc(F)nc(-c6c7ccccc7cn6C)n5)ccc4C3CC[C@@]21C` (some centres undefined), the TGI in the test with UO-31 renal, with SK-OV-3 ovarian, in the test on KM12 colon, in the test on U251 CNS, in the test on HOP-92 NSCLC and with SK-MEL-28 melanoma was > 100 µM throughout.

Regarding `CC1(C)CC(=O)c2c(nc3c(ccc4ccccc43)c2-c2ccc(NC(=O)CCCCC(=O)Nc3ccc(-c4c5c(nc6c4ccc4ccccc46)CC(C)(C)CC5=O)cc3)cc2)C1`, the TGI in the test with UO-31 renal was 74.1 µM; in the test with SK-MEL-5 melanoma, > 100 µM; in the test with SK-OV-3 ovarian it was > 100 µM; with KM12 colon, 42.2 µM; with U251 CNS, > 100 µM; in the test with IGROV1 ovarian, 37.5 µM. The TGI with HS 578T breast, with SK-MEL-28 melanoma and in the test with DU-145 prostate was > 100 µM in each case.

Regarding `COc1ccc2nc3n(c2c1)C(=O)c1ccccc1-3`, the TGI in the test on UO-31 renal, with SK-MEL-5 melanoma, with SK-OV-3 ovarian, in the test with KM12 colon, in the test with U251 CNS and in the test with IGROV1 ovarian was > 100 µM throughout. Further, the TGI in the test on HOP-92 NSCLC, with SK-MEL-28 melanoma and with DU-145 prostate was > 100 µM in each case.
